Active and inactive are the calls of the source. No cut-off for these calls is given here.
What was measured:
[1] = test system: Mus musculus; test: Antianxiety activity in mouse assessed as ataxia, catatonia, and alterations in motor activity and startle reflex at 50 mg/kg, ip after 30 to 120 mins; format: functional, organism-based; parameters: dose 50 mg/kg
[2] = test system: Mus musculus; test: Antianxiety activity in mouse assessed as ataxia, catatonia, and alterations in motor activity and startle reflex at 100 mg/kg, ip after 30 to 120 mins; format: functional, organism-based; parameters: dose 100 mg/kg
[3] = test system: Rattus norvegicus; test: Antipsychotic activity in ip dosed rat assessed as reduction in avoidance responding by Sidman avoidance test; format: functional
[4] = test system: Rattus norvegicus; test: Anticonvulsant activity in ip dosed rat assessed as impairment of motor performance by forced motor activity test; format: functional
[5] = test system: Rattus norvegicus; test: Anticonvulsant activity in ip dosed rat assessed as impairment of motor performance by spontaneous motor activity test; format: functional
[6] = test system: Mus musculus; test: […] in po dosed mouse assessed as potentiation of ethanol-induced loss of the righting reflex in 50% mouse; format: functional
[7] = test system: Mus musculus; test: […] in po dosed mouse assessed as potentiation of sodium barbital-induced loss of the righting reflex in 50% mouse; format: functional
[8] = test system: Rattus norvegicus; test: Antianxiety activity in ip dosed rat assessed as punished responding by conditioned lick suppression behavioral test; format: functional; settings: read-out: MED
[9] = test system: Rattus norvegicus; test: Antianxiety activity in po dosed rat assessed as punished responding by conditioned lick suppression behavioral test; format: functional; settings: read-out: MED
[10] = Acute toxicity in mouse measured following single po dose; format: organism-based; settings: in vivo
[11] = Acute toxicity in mouse measured following single ip dose; format: organism-based; settings: in vivo
[12] = test system: Rhesus monkey; test: Antiaggressive activity in Rhesus monkey assessed as reduction in biting, pushing or attacking the pole responses at 2.5 to 10 mg/mg, po after 0 to 6 hrs; format: functional, organism-based; settings: Macaca mulatta
[13] = test system: Mus musculus; test: Antiaggressive activity in mouse assessed as change in foot shock-induced fighting behavior at 20 mg/kg, po after 30 mins; format: functional
[14] = test system: Mus musculus; test: Antiaggressive activity in mouse assessed as change in foot shock-induced fighting behavior at 20 mg/kg, po after 90 mins; format: functional
[15] = test system: Mus musculus; test: Antiaggressive activity in mouse assessed as change in foot shock-induced fighting behavior at 80 mg/kg, po after 30 mins; format: functional
[16] = test system: Mus musculus; test: Antiaggressive activity in mouse assessed as change in foot shock-induced fighting behavior at 80 mg/kg, po after 90 mins; format: functional
[17] = test system: Rattus norvegicus; test: Antiaggressive activity in Long-Evans black-hooded rat assessed as suppression of muricide behavior for 2 mins period at 20 mg/kg, po; format: functional; settings: Long-Evans black-hood
[18] = test system: Rattus norvegicus; test: Antiaggressive activity in Long-Evans black-hooded rat assessed as suppression of muricide behavior for 2 mins period at 80 mg/kg, po; format: functional; settings: Long-Evans black-hood
[19] = test system: Rhesus monkey; test: Antiaggressive activity in Rhesus monkey assessed as reduction in biting, pushing or attacking the pole responses at 25 to 100 mg/mg, po after 0 to 6 hrs; format: functional, organism-based; settings: Macaca mulatta

Row | Structure (SMILES) | Activity [1] | Activity [2] | also measured
1 | Cc1cc(C)n2[nH]c(=O)cc2n1 | inactive | inactive | 
2 | Cc1cc(C)n2ncc(C#N)c2n1 | inactive | inactive | 
3 | CN(C)CCCN1c2ccccc2Sc2ccc(Cl)cc21 [CHLORPROMAZINE] |  |  | ED50 [3]: 3.7 mg/kg
4 | Cc1cc(C)n2ncc(C(N)=S)c2n1 | inactive | inactive | 
5 | Cc1cc(C)n2nc(Br)cc2n1 | Active | Active | 
6 | CCc1cc(CC)n2ncc(Br)c2n1 | Active | Active | 
7 | Cc1cc(C)n2nc(Cl)cc2n1 | Active | Active | 
8 | Cc1cc(C)n2ncc(I)c2n1 | Active | Active | ED50 [4]: 19.8 mg/kg; ED50 [5]: 24.9 mg/kg; HD50 [6]: 296.1 mg/kg; HD50 [7]: 142.8 mg/kg; ED50 [3]: 39.1 mg/kg; minimal effective dose [8]: 20 mg/kg; minimal effective dose [9]: 120 mg/kg; LD50 [10]: > 3000 mg/kg; LD50 [11]: 612 mg/kg
9 | FC(F)(F)c1cc(C(F)(F)F)n2nccc2n1 | inactive | inactive | 
10 | Cc1cc(C)n2ncc(-c3ccccc3)c2n1 | inactive | inactive | 
11 | Cc1cnc2ccnn2c1 | inactive | inactive | 
12 | Cc1ccnc2ccnn12 | inactive | inactive | 
13 | Cc1ccnc2c(Br)cnn12 | inactive | inactive | 
14 | CN1C(=O)CN=C(c2ccccc2)c2cc(Cl)ccc21 [DIAZEPAM] |  |  | ED50 [4]: 5.6 mg/kg; ED50 [5]: 9.2 mg/kg; HD50 [6]: 1.5 mg/kg; HD50 [7]: 0.5 mg/kg; ED50 [3]: 11.3 mg/kg; minimal effective dose [8]: 20 mg/kg; minimal effective dose [9]: 20 mg/kg; inhibition [12]: inactive
15 | Cc1cc(C)n2ncc([N+](=O)[O-])c2n1 | inactive | inactive | 
16 | CC(=O)Cc1cc(C)nc2ccnn12 | Active | Active | 
17 | Cc1cc(C)n2ncc(S)c2n1 | inactive | inactive | 
18 | CCCc1cc(C)nc2c(Br)cnn12 | Active | Active | 
19 | Cc1cc(C)n2ncc(C(=O)C(F)(F)F)c2n1 | inactive | inactive | 
20 | Cc1cc(C)n2ncc(N=O)c2n1 | inactive | inactive | 
21 | Cc1cc(C)n2nccc2n1 | Active | Active | ED50 [4]: 65 mg/kg; ED50 [5]: 79 mg/kg; HD50 [6]: 228.6 mg/kg; HD50 [7]: 118.8 mg/kg; ED50 [3]: 60.3 mg/kg; minimal effective dose [8]: 40 mg/kg; minimal effective dose [9]: 60 mg/kg; LD50 [10]: 928 mg/kg; LD50 [11]: 537 mg/kg
22 | CC(C)c1cc(C(C)C)n2ncc(Br)c2n1 | inactive | inactive | 

Row | Structure (SMILES) | Activity [1] | Activity [2] | also measured
23 | Cc1cc(C)n2ncc(SC#N)c2n1 | inactive | inactive | 
24 | Cc1cn2nccc2nc1C | inactive | inactive | 
25 | Cc1cc(C)n2ncc(C)c2n1 | Active | Active | 
26 | CCCCc1cc(CCCC)n2ncc(Br)c2n1 | inactive | inactive | 
27 | Cc1cc(C)n2ncc(F)c2n1 | Active | Active | ED50 [3]: 40.2 mg/kg; minimal effective dose [8]: 40 mg/kg; minimal effective dose [9]: 80 mg/kg
28 | Cc1cc(C)n2ncc(Br)c2n1 | Active | Active | ED50 [4]: 18.4 mg/kg; ED50 [5]: 27.1 mg/kg; HD50 [6]: 236.8 mg/kg; HD50 [7]: 61.9 mg/kg; ED50 [3]: 29.5 mg/kg; minimal effective dose [8]: 10 mg/kg; minimal effective dose [9]: 20 mg/kg; LD50 [10]: 1350 mg/kg; LD50 [11]: 458 mg/kg; Activity [13]: 30%; Activity [14]: 13%; Activity [15]: -46%; Activity [16]: -8%; inhibition in vivo at 20 mg/kg [17]: 0%; inhibition in vivo at 80 mg/kg [18]: 60%; inhibition [19]: inactive
29 | Cc1cc(C)n2nc(O)c(Br)c2n1 | inactive | inactive | 
30 | Cc1cc(C)n2ncc(S(=O)(=O)N3CCN(C)CC3)c2n1 | inactive | inactive | 
31 | c1cnc2ccnn2c1 | Active | Active | 
32 | Cc1cc(C)n2ncc(/C(N)=N/O)c2n1 | inactive | inactive | 
33 | Cc1cn2ncc(Br)c2nc1C | inactive | inactive | 
34 | Cc1ccn2nccc2n1 | Active | Active | 
35 | CCc1cc(C)nc2c(Br)cnn12 | Active | Active | 
36 | CNC1=Nc2ccc(Cl)cc2C(c2ccccc2)=[N+]([O-])C1 [CHLORDIAZEPOXIDE] |  |  | HD50 [6]: 12.6 mg/kg; HD50 [7]: 6.4 mg/kg; ED50 [3]: 14.3 mg/kg; minimal effective dose [8]: 20 mg/kg; minimal effective dose [9]: 60 mg/kg; LD50 [10]: 939 mg/kg; LD50 [11]: 183 mg/kg
37 | CCOC(=O)c1cnn2c(C)cc(C)nc12 | inactive | inactive | 
38 | Cc1cc(C)n2ncc(S(=O)(=O)Cl)c2n1 | inactive | inactive | 
39 | Brc1cnn2cccnc12 | inactive | inactive | 
40 | Cc1cc(C)n2ncc(N)c2n1 | inactive | inactive | 
41 | Cc1cc(C)n2ncc(C(N)=O)c2n1 | Active | Active | 
42 | Cc1cc(C)n2ncc(Cl)c2n1 | Active | Active | ED50 [4]: 32.7 mg/kg; ED50 [5]: 38.6 mg/kg; HD50 [6]: 391.7 mg/kg; HD50 [7]: 60.9 mg/kg; ED50 [3]: 31.8 mg/kg; minimal effective dose [8]: 10 mg/kg; minimal effective dose [9]: 10 mg/kg; LD50 [10]: 599 mg/kg; LD50 [11]: 369 mg/kg; Activity [13]: -3%; Activity [14]: 22%; Activity [15]: -89%; Activity [16]: -57%; inhibition in vivo at 20 mg/kg [17]: 0%; inhibition in vivo at 80 mg/kg [18]: 80%; inhibition [19]: inactive
43 | Cc1cc(C)n2ncc(S(N)(=O)=O)c2n1 | inactive | inactive | 

Source: ChEMBL document CHEMBL3244062, “3-Halo-5,7-dimethylpyrazolo [1,5-a]pyrimidines, a nonbenzodiazepinoid class of antianxiety agents devoid of potentiation of central nervous system depressant effects of ethanol or barbiturates” (J Med Chem, 1977)
